# Key:
# HIV-1 (BaL) = assay: microbe, parasite or virus in culture; format: cell-based
# Experimental: Macrophages can be isolated as follows: Monocytes can be isolated from buffy coats of HIV-1 negative, HBV/HCV-negative donors with density gradient centrifugation coupled with enrichment for CD14+ monocytes with Rosette Sep antibody cocktail (Stem Cell Technologies, Vancouver, British Columbia). Cells can be seeded at a concentration of 1.0×10^6 cells/well for 1 hr at 37° C. and 5% CO2 to confer plastic adherence prior to repeated washes with 1×PBS. Macrophages can be maintained in medium containing 100 U/ml macrophage colony-stimulating factor (m-CSF, R&D Systems, Minneapolis, Minn.), supplemented with 20% fetal calf serum (Atlanta Biologicals, Lawrenceville, Ga.) and 1% penicillin/streptomyocin (Invitrogen, Carlsbad, Calif.) for 7 days (37° C., 5% CO2) prior to testing.
# Macrophage infections: Macrophages can be cultured as described above for 7 days. For acute infection, macrophages can be serum starved for 8 hrs prior to infection and cultured for 2 hr in medium containing various concentrations of AZT (positive control) or Tofacitinib or Jakafi for 2 hr prior to removal of drug-containing medium and 4 hr infection with HIV-1BaL at 0.1 MOI in the absence of drug. Four hr after infection, virus can be removed and drug-containing medium returned to the cultures. Supernatants can be collected on day 7 post-infection and HIV-1 p24 can be quantified via ELISA (Zeptometrix Corporation, Buffalo, N.Y.). EC50 analysis can be performed using CalcuSyn software (BioSoft Corporation, Cambridge, UK).
# Extracellular virus was quantified 7 days after infection (HIV-1 p24 ELISA).
# [1] = test system: primary human macrophages; assay: Toxicity in primary human macrophages (zombie violet live/dead dye, FACS); format: cell-based; conditions: Macrophage
# [2] = test system: primary human lymphocytes; assay: Proliferation and viability of activated PBM cells / PHA or PHA+IL-2 stimulated primary human lymphocytes; format: cell-based; conditions: for Viability, proliferation or total cell number not affected up to: human
# Experimental: The toxicity of the compounds was assessed in Vero, human PBM, CEM (human lymphoblastoid), as described previously (see Schinazi R. F., Sommadossi J.-P., Saalmann V., Cannon D. L., Xie M.-Y., Hart G. C., Smith G. A. & Hahn E. F. Antimicrob. Agents Chemother. 1990, 34, 1061-67), and also in MØ cells. Cycloheximide was included as positive cytotoxic control, and untreated cells exposed to cell culture medium were included as negative controls. […]
# Cell proliferation was evaluated in activated PBM cells incubated for 5 days with various concentrations of Tofacitinib and Jakafi, with cycloheximide as a positive control, and a “cells plus media” control used as well. The data is shown in FIG. 2, in terms of total cell number (10^6 cells) versus μM drug in medium.
# Cell viability was evaluated in activated PBM cells incubated for 5 days with various concentrations of Tofacitinib and Jakafi, with cycloheximide as a positive control, and a “cells plus media” control used as well.
# For all experiments, cells were incubated with media alone or drug-containing medium for 5 days prior to assessment of cell count and viability. […] Data are mean and standard deviations for at least three independent experiments conducted with at least four pooled donors, and duplicates within each experiment. Dotted bar represents mean cell count or viability for cells maintained in drug-free medium.
# MØ cells = format: cell-based; conditions: human
# Experimental: The toxicity of the compounds was assessed in Vero, human PBM, CEM (human lymphoblastoid), as described previously (see Schinazi R. F., Sommadossi J.-P., Saalmann V., Cannon D. L., Xie M.-Y., Hart G. C., Smith G. A. & Hahn E. F. Antimicrob. Agents Chemother. 1990, 34, 1061-67), and also in MØ cells. Cycloheximide was included as positive cytotoxic control, and untreated cells exposed to cell culture medium were included as negative controls.
# The cytotoxicity IC50 was obtained from the concentration-response curve using the median effective method described previously (see Chou T.-C. & Talalay P. Adv. Enzyme Regul. 1984, 22, 27-55; Belen'kii M. S. & Schinazi R. F. Antiviral Res. 1994, 25, 1-11).
# HIV-1 = test system: HIV-1
# Experimental: Human PBM cells can be isolated as follows: Lymphocytes can be isolated from buffy coats derived from healthy donors. Activated lymphocytes can be maintained for 72 hr in medium supplemented with 6 μg/ml phytohemagglutinin (PHA) (Cape Cod associates, East Falmouth, Mass.). Media can be comprised of RPMI media supplemented with 20% fetal calf serum, 1% penicillin/streptomyocin and 2% L-glutamine (Sigma Aldrich, San Jose, Calif.).
# Human PBM cell infections: Testing can be performed in duplicate with at least 3 independent assays. Cells can be incubated in RPMI medium (HyClone, Logan, Utah) containing HR-IL2 (26.5 units/ml) and 20% fetal calf serum. Infections can be performed by adding HIV-ILA' followed by a further incubation at 37° C., 5% CO2, 1 hr prior to addition of drugs. Assays can be performed in 24 well plates (BD Biosciences, Franklin Lakes, N.J.). One ml of supernatant can be collected after 5 days in culture and then centrifuged at 12,000 rpm for 2 hr at 4° C. in a Jouan Br43i (Thermo Electron Corp., Marietta, Ohio). The product of the RT assay can be quantified using a Packard harvester and direct beta counter and the data can be analyzed as previously described (Schinazi et al., 1990).
# HepG2 cells = conditions: 10 μM; cited from earlier work
# mice = conditions: mouse, in vivo; cited from earlier work
molecule,measurement,setting,value
"Cc1cn([C@H]2C[C@H](N=[N+]=[N-])[C@@H](CO)O2)c(=O)[nH]c1=O [AZT, 3′-azido-3′-deoxythymidine]",Inhibition of HIV-1 replication in primary human macrophages,"HIV-1 (BaL); HIV-1 BaL, p24 ELISA day 7",nanomolar inhibition
same,EC50,"HIV-1 (BaL); Human immunodeficiency virus 1, Macrophage, 168 h, HIV-1 BaL, extracellular virus 7 days after infection, read-out: Antiviral potency in primary human macrophages (EC50)",10 ± 20 nM
same,EC90,"HIV-1 (BaL); Human immunodeficiency virus 1, Macrophage, 168 h, HIV-1 BaL, extracellular virus 7 days after infection, read-out: Antiviral potency in primary human macrophages (EC90)",700 ± 200 nM
same,IC50,[1],> 100000 nM
N#CC[C@H](C1CCCC1)n1cc(-c2ncnc3[nH]ccc23)cn1 [Jakafi],Inhibition of HIV-1 replication in MØ cells,HIV-1 (BaL),sub-micromolar
same,Proliferation versus cells exposed to media alone,[2],not significantly different
same,Total cell proliferation,[2],do not affect
same,Total cell viability,[2],do not affect
same,Viability versus cells exposed to media alone,[2],not significantly different
same,"Viability, proliferation or total cell number not affected up to",[2]; 5 days,around 10 μM
same,"Viability, proliferation or total cell number not affected up to",MØ cells,around 10 μM
same,Inhibition of HIV-1 replication in PBM cells,HIV-1,sub-micromolar
"C[C@@H]1CCN(C(=O)CC#N)C[C@@H]1N(C)c1ncnc2[nH]ccc12 [Tofacitinib, 3-{(3R,4R)-4 methyl-3-[methyl-(7H-pyrrolo[2,3-d]pyrimidin-4-yl)-amino]-piperidin-1-yl}-3-oxo-propionitrile]",Inhibition of HIV-1 replication in MØ cells,HIV-1 (BaL),sub-micromolar
same,Proliferation versus cells exposed to media alone,[2],not significantly different
same,Total cell proliferation,[2],do not affect
same,Total cell viability,[2],do not affect
same,Viability versus cells exposed to media alone,[2],not significantly different
same,"Viability, proliferation or total cell number not affected up to",[2]; 5 days,around 10 μM
same,"Viability, proliferation or total cell number not affected up to",MØ cells,around 10 μM
same,Inhibition of HIV-1 replication in PBM cells,HIV-1,sub-micromolar
C[C@@H]1C[C@@H]([C@H](O)CC2CC(=O)NC(=O)C2)C(=O)[C@@H](C)C1 [cycloheximide],Cell count and viability (positive control),"[2]; stimulated lymphocytes, 5 days",toxic in a dose dependent manner
"O=c1[nH]c(=O)n([C@@H]2O[C@H](CO)[C@@H](O)[C@@H]2F)cc1I [fialuridine, 1,2′-deoxy-2′-fluoro-1-D-arabinofuranosly-5-iodo-uracil]",Mitochondrial morphology in electron micrographs,HepG2 cells,enlarged mitochondria with morphological changes consistent with mitochondrial dysfunction
"LR6-1: LQEEDA, SEQ ID NO 4 (listed as Homo sapiens)",Protection of mice against polymicrobial sepsis,mice,protect
"LR6-2: EDAGEY, SEQ ID NO 5 (listed as Homo sapiens)",Protection of mice against polymicrobial sepsis,mice,protect
"LR6-3: GEYGCM, SEQ ID NO 6 (listed as Homo sapiens)",Protection of mice against polymicrobial sepsis,mice,protect

# Source: US11052090B2, “Use of TREM-1 inhibitors for treatment, elimination and eradication of HIV-1 infection” (priority 2015, dated 2021)
